How the values were obtained:
mouse = conditions: cited from earlier work
[1] = frequent use and overdosing; cited from earlier work
[2] = Tasting of the substance in 11% sugar solution by a group of testers (sensory profile); type: in vivo; conditions: for sensory profile (tasting): approx. 5 ml swallowed, 6 to 8 testers; for flavour impression in sensory testing: concentration not given
Experimental: The substance to be tasted is dissolved in ethanol and the ethanolic solution then diluted with an 11% sugar solution (final concentration: c). Approx. 5 ml of the sugar solution at a time are swallowed for the tasting. If the threshold value of the substance is known, a value just above the threshold value is chosen for the tasting. A group of 6 to 8 testers tasted the solutions.

[3] = capsaicin as reference; cited from earlier work

SMILES: COc1cc(CNC(=O)CCCC/C=C/C(C)C)ccc1O [capsaicin, N-(4-hydroxy-3-methoxybenzyl)-8-methyl-(6E)-nonenoic acid amide]
- LD50 (mouse oral) (mouse): 47 mg
- chronic toxicity [1]: chronic gastritis, kidney and liver damage

SMILES: CCCCC/C=C\C=C\C(=O)NCC(C)C [cis-pellitorine, 2E,4Z-decadienoic acid-N-isobutylamide]
- sensory profile (tasting) ([2]; c=10 ppm in 11% sugar solution): pronounced feeling of warmth, immediately pungent, typical alcohol pungency
- flavour impression in sensory testing [2]: pleasant, extremely pungent and warm flavour impression, which is reminiscent of ethanol and is relatively long lasting

SMILES: COc1cc(CNC(=O)CCCCCCC(C)C)ccc1O [dihydrocapsaicin]
- sensory profile (tasting) ([2]; c=100 ppb in 11% sugar solution): slightly delayed onset of effect in the pharynx, burning, aggressive, no heat development

SMILES: O=C(/C=C/C=C/c1ccc2c(c1)OCO2)N1CCCCC1 [piperine, 1-piperoyl piperidine]
- relative pungency in comparison to capsaicin [3]: approx. 1%

SMILES: CCCCC/C=C/C=C/C(=O)NCC(C)C [trans-pellitorine, 2E,4E-decadienoic acid-N-isobutylamide]
- sensory profile (tasting) ([2]; c=10 ppm in 11% sugar solution): saliva-stimulating, oily, fruity, slightly tingling, not pungent
- flavour impression in sensory testing [2]: primarily numbing
